Results taken from patent publication US20070208166A1, “Tao Kinase Modulators And Method Of Use” (Exelixis, Inc., priority 2003, published 2007).
pIC50: −log10 of the molar value.

Experiments:
Type in all cases: biochemical
[1] = target: T1, TAO (Homo sapiens, UniProt Q9UL54); experiment: TAO Luciferase-Coupled Chemiluminescent Kinase assay (LCCA); conditions: 2 μM ATP, 10 μM MBP, 12 nM TAO, 2 hours; read-out: TAO inhibition IC50
T1 sequence (Q9UL54 1-1235): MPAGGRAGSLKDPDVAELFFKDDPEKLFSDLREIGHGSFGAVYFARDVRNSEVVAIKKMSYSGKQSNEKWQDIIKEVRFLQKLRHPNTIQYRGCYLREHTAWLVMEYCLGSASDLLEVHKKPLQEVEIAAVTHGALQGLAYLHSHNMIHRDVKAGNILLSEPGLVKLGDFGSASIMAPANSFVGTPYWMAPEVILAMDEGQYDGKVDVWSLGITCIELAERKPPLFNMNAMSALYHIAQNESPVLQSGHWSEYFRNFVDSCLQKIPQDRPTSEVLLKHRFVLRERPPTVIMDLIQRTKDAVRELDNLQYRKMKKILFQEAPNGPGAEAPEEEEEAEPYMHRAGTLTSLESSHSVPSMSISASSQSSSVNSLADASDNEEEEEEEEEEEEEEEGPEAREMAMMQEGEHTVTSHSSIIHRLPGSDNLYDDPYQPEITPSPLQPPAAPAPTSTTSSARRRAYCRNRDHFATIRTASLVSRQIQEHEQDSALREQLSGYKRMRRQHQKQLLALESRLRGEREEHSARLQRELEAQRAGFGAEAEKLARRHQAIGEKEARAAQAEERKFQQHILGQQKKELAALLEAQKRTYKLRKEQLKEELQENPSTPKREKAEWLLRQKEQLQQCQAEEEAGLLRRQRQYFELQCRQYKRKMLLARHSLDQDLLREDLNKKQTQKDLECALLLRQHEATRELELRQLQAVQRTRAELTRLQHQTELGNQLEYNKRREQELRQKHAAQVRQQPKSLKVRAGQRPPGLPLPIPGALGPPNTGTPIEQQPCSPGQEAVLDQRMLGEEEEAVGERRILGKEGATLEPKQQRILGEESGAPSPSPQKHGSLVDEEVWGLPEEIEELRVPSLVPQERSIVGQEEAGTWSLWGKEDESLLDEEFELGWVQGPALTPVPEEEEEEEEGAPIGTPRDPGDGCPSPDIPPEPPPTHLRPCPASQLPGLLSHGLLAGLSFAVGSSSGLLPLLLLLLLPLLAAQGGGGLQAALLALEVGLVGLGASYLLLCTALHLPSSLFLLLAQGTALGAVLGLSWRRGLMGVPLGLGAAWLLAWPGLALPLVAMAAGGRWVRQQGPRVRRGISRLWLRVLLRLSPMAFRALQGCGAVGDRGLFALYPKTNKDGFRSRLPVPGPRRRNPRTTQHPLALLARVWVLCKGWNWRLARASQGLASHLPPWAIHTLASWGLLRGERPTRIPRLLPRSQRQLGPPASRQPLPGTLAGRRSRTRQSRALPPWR
Method: (§1) Kinase activity and compound inhibition are investigated using one or more of the three assay formats described below. The ATP concentrations for each assay are selected to be close to the Michaelis-Menten constant (KM) for each individual kinase. Dose-response experiments are performed at 10 different inhibitor concentrations in a 384-well plate format. The data are fitted to four-parameter equation (2) below; where Y is the observed signal, X is the inhibitor concentration, Min is the background signal in the absence of enzyme (0% enzyme activity), Max is the signal in the absence of inhibitor (100% enzyme activity), IC50 is the inhibitor concentration at 50% enzyme inhibition and H represents the empirical Hill's slope to measure the cooperativity. Typically H is close to unity. Y=Min+(Max−Min)/(1+(X/IC50)ˆH) Equation (2) KIAA 1361 Assay: […]
(§2) TAO biochemical activity was assessed using a Luciferase-Coupled Chemiluminescent Kinase assay (LCCA) format. Kinase activity was measured as the percent ATP remaining following the kinase reaction. Remaining ATP was detected by luciferase-luciferin-coupled chemiluminescence. Specifically, the reaction was initiated by mixing test compounds, 2 μM ATP, 10 μM MBP and 12 nM TAO (baculovirus expressed human KIAA 1361 kinase domain 2-322) in a 20 uL assay buffer (20 mM Tris-HCL pH7.5, 10 mM MgCl2, 0.02% Triton X-100, 100 mM DTT, 2 mM MnCl2). The mixture is incubated at ambient temperature for 2 hours after which 20 uL luciferase-luciferin mix is added and the chemiluminescent signal read using a Wallac Victor^2 reader. The luciferase-luciferin mix consists of 50 mM BEPES, pH 7.8, 8.5 ug/mL oxalic acid (pH 7.8), 5 (or 50) mM DTT, 0.4% Triton X-100, 0.25 mg/nL coenzyme A, 63 uM AMP, 28 ug/mL luciferin and 40,000 units of light/mL luciferase.

[2] = target: T2, KIAA 1361 (baculovirus expressed human KIAA 1361 kinase domain 2-322) (Homo sapiens, UniProt Q7L7X3); experiment: KIAA 1361 Luciferase-Coupled Chemiluminescent Kinase assay (LCCA); conditions: 2 μM ATP, 10 μM MBP, 12 nM KIAA 1361, 2 hours; read-out: KIAA1361 inhibition IC50
T2 construct: human KIAA 1361 kinase domain 2-322; made in house
T2 sequence (Q7L7X3 2-322): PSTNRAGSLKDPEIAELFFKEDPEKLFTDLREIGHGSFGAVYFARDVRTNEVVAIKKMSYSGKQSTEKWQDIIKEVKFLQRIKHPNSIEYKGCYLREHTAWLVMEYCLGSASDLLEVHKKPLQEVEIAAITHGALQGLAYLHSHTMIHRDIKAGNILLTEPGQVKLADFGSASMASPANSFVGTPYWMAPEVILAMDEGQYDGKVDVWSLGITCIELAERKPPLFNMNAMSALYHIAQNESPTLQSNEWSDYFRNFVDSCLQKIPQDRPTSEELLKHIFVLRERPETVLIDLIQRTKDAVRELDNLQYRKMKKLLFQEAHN
Method: as §1
as §2, with “KIAA 1361” for “TAO”, “HEPES,” for “BEPES,”, “mg/mL” for “mg/nL”

[3] = target: T3, JIK (Homo sapiens, UniProt Q9H2K8); experiment: JIK Luciferase-Coupled Chemiluminescent Kinase assay (LCCA); conditions: 2 μM ATP, 10 μM MBP, 6 nM JIK, 2 hours; read-out: JIK inhibition IC50
T3 construct: 6 nM JIK (baculovirus expressed human KIAA 1361 kinase domain2-318); made in house
T3 sequence (Q9H2K8 2-318): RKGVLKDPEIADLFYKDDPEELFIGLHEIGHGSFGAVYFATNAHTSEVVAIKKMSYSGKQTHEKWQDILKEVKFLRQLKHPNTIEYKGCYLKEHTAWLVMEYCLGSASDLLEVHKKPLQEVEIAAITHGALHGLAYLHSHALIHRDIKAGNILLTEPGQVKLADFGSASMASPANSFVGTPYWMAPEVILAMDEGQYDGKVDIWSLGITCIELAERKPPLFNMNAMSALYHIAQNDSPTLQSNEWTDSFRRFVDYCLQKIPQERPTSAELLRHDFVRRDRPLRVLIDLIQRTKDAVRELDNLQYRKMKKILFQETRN
Method: as §1
as §2, with “JIK” for “TAO”, “6” for “12”, “domain2-318)” for “domain 2-322)”, “HEPES,” for “BEPES,”, “mg/mL” for “mg/nL”

SMILES | pIC50 [1] | pIC50 [2] | pIC50 [3]
O=C(NC(C(=O)NC1CCCc2ccccc21)c1cccnc1)c1ccc(-n2cncn2)cc1 (stereo not drawn) [Entry 16, N-[2-oxo-1-pyridin-3-yl-2-(1,2,3,4-tetrahydronaphthalen-1-ylamino)ethyl]-4-(1H-1,2,4-triazol-1-yl)benzamide] | 6.30 to 7.30 | 6.30 to 7.30 | 6.30 to 7.30
CCCCCc1ccc(C(=O)NCC(=O)NC2CCCc3ccccc32)cc1 (stereo not drawn) [Entry 11, N-[2-oxo-2-(1,2,3,4-tetrahydronaphthalen-1-ylamino)ethyl]-4-pentylbenzamide] | 6.30 to 7.30 | 6.30 to 7.30 | 6.30 to 7.30
O=C(CNC(=O)Nc1cc(C(F)(F)F)cc(C(F)(F)F)c1)NC1CCCc2ccccc21 (stereo not drawn) [Entry 47, N˜2˜-({[3,5-bis(trifluoromethyl)phenyl]amino}carbonyl)-N-(1,2,3,4-tetrahydronaphthalen-1-yl)glycinamide] | < 5.30 | < 5.30 | < 5.30
CCCCOc1ccc(C(=O)N[C@@H](Cc2c[nH]c3ccccc23)C(=O)NC2CCCc3ccccc32)cc1 (stereo partly drawn) [Entry 14, Nalpha-{[4-(butyloxy)phenyl]carbonyl}-N-(1,2,3,4-tetrahydronaphthalen-1-yl)tryptophanamide] | 5.30 to 6.30 | 6.30 to 7.30 | 6.30 to 7.30
COc1ccc2nc(NC(=O)CNC(=O)Cn3cnc4sc(C)c(C)c4c3=O)sc2c1 [Entry 40, N˜2˜-[(5,6-dimethyl-4-oxothieno[2,3-d]pyrimidin-3(4H)-yl)acetyl]-N-[6-(methyloxy)-1,3-benzothiazol-2-yl]glycinamide] | 5.30 to 6.30 | 6.30 to 7.30 | 6.30 to 7.30
O=C(COc1ccc(OCc2ccccc2)cc1)NCC(=O)NC1CCCc2ccccc21 (stereo not drawn) [Entry 2, N˜2˜-[({4-[(phenylmethyl)oxy]phenyl}oxy)acetyl]-N-(1,2,3,4-tetrahydronaphthalen-1-yl)glycinamide] | 6.30 to 7.30 | 6.30 to 7.30 | > 7.30

Results, then the molecule that gave them:

pIC50 [1] | pIC50 [2] | pIC50 [3] | SMILES
< 5.30 | 5.30 to 6.30 | 6.30 to 7.30 | CCc1ccc(-c2ccc(C(=O)NCC(=O)NC(CC)c3ccccc3)cc2)cc1 (stereo not drawn) [Entry 83, 4′-ethyl-N-{2-oxo-2-[(1-phenylpropyl)amino]ethyl}biphenyl-4-carboxamide]
5.30 to 6.30 | 5.30 to 6.30 | 6.30 to 7.30 | O=C(CNC(=O)c1ccc(-n2ccnc2)cc1)NC1CCCc2ccccc21 (stereo not drawn) [Entry 70, 4-(1H-imidazol-1-yl)-N-[2-oxo-2-(1,2,3,4-tetrahydronaphthalen-1-ylamino)ethyl]benzamide]
6.30 to 7.30 | 6.30 to 7.30 | > 7.30 | O=C(CC(NC(=O)c1ccccc1)c1ccccc1)NCC(=O)Nc1nc2ccc(O)cc2s1 (stereo not drawn) [Entry 98, N-[3-({2-[(6-hydroxy-1,3-benzothiazol-2-yl)amino]-2-oxoethyl}amino)-3-oxo-1-phenylpropyl]benzamide]
< 5.30 | < 5.30 | < 5.30 | CCc1ccc(-c2ccc(C(=O)NCC(=O)NCCc3ccccc3)cc2)cc1 [Entry 75, 4′-ethyl-N-{2-oxo-2-[(2-phenylethyl)amino]ethyl}biphenyl-4-carboxamide]
6.30 to 7.30 | > 7.30 | > 7.30 | O=C(CNC(=O)c1ccc(OCc2ccccc2)cc1)NC1CCCc2ccccc21 (stereo not drawn) [Entry 51, N-[2-oxo-2-(1,2,3,4-tetrahydronaphthalen-1-ylamino)ethyl]-4-[(phenylmethyl)oxy]benzamide]
5.30 to 6.30 | 5.30 to 6.30 | 5.30 to 6.30 | CCc1ccc(-c2ccc(C(=O)NCC(=O)NC3CNCc4ccccc43)cc2)cc1 (stereo not drawn) [Entry 96, 4′-ethyl-N-[2-oxo-2-(1,2,3,4-tetrahydroisoquinolin-4-ylamino)ethyl]biphenyl-4-carboxamide]
< 5.30 | < 5.30 | < 5.30 | CCc1cccc(NC(=O)NCC(=O)NC2CCCc3ccccc32)c1 (stereo not drawn) [Entry 48, N˜2˜-{[(3-ethylphenyl)amino]carbonyl}-N-(1,2,3,4-tetrahydronaphthalen-1-yl)glycinamide]
